Measurements: patent US11236087B2, “Highly active pyrazolo-piperidine substituted indole-2-carboxamides active against the hepatitis B virus (HBV)” (AiCuris GmbH & Co. KG, priority 2017, dated 2022)

Key:
[1] = tested on: HBV; experiment: Determination of HBV DNA from the supernatants of HepAD38 cells (anti-HBV activity); assay type: cell-based, hepatitis B virus; conditions: Hepatitis B virus, 144 h; HBV DNA in HepAD38 supernatant, day 6, qPCR; read-out: Cell Activity (EC50)
Experimental: Determination of HBV DNA from the Supernatants of HepAD38 Cells
The anti-HBV activity was analysed in the stable transfected cell line HepAD38, which has been described to secrete high levels of HBV virion particles (Ladner et al., 1997). In brief, HepAD38 cells were cultured at 37° C. at 5% CO2 and 95% humidity in 200 μl maintenance medium, which was Dulbecco's modified Eagle's medium/Nutrient Mixture F-12 (Gibco, Karlsruhe), 10% fetal bovine serum (PAN Biotech Aidenbach) supplemented with 50 μg/ml penicillin/streptomycin (Gibco, Karlsruhe), 2 mM L-glutamine (PAN Biotech, Aidenbach), 400 μg/ml G418 (AppliChem, Darmstadt) and 0.3 μg/ml tetracycline. Cells were subcultured once a week in a 1:5 ratio, but were usually not passaged more than ten times. For the assay 60,000 cells were seeded in maintenance medium without any tetracycline into each well of a 96-well plate and treated with serial half-log dilutions of test compound. To minimize edge effects the outer 36 wells of the plate were not used but were filled with assay medium. On each assay plate six wells for the virus control (untreated HepAD38 cells) and six wells for the cell control (HepAD38 cells treated with 0.3 μg/ml tetracycline) were allocated, respectively. In addition, one plate set with reference inhibitors like BAY 41-4109, entecavir, and lamivudine instead of screening compounds were prepared in each experiment. In general, experiments were performed thrice in triplicates. At day 6 HBV DNA from 100 μl filtrated cell culture supernatant (AcroPrep Advance 96 Filter Plate, […] Supor membran, PALL GmbH, Dreieich) was automatically purified on the MagNa Pure LC instrument using the MagNA Pure 96 DNA and Viral NA Small Volume Kit (Roche Diagnostics, Mannheim) according to the instructions of the manufacturer. EC50 values were calculated from relative copy numbers of HBV DNA In brief, 5 μl of the 100 μl eluate containing HBV DNA were subjected to PCR LC480 Probes Master Kit (Roche) together with 1 μM antisense primer […], 0.5 μM sense primer […], 0.3 μM hybprobes […]-FL and LC640-[…]-PH (TIBMoBiol, Berlin) to a final volume of 12.5 μl. The PCR was performed on the Light Cycler 480 real time system (Roche Diagnostics, Mannheim) using the following protocol: Pre-incubation for 1 min at 95° C., amplification: 40 cycles×(10 sec at 95° C., 50 sec at 60° C., 1 sec at 70° C.), cooling for 10 sec at 40° C. Viral load was quantitated against known standards using HBV plasmid DNA of pCH-9/3091 (Nassal et al., 1990, Cell 63: 1357-1363) and the LightCycler 480 SW 1.5 software (Roche Diagnostics, Mannheim) and EC50 values were calculated using non-linear regression with GraphPad Prism 6 (GraphPad Software Inc., La Jolla, USA).

[2] = Cell viability assay (AlamarBlue) in HepAD38 cells; conditions: human

Compound | EC50 [1] [µM] | CC50 at 6 days [2] [µM]
O=C(c1cc2c(F)c(F)c(F)cc2[nH]1)N1CCc2n[nH]c(-c3cscn3)c2C1 [Example 11, 4,5,6-trifluoro-2-[3-(1,3-thiazol-4-yl)-2H,4H,5H,6H,7H-pyrazolo[4,3-c]pyridine-5-carbonyl]-1H-indole] | < 1 | > 10
O=C(c1cc2c(Cl)c(F)ccc2[nH]1)N1CCc2n[nH]c(-c3cscn3)c2C1 [Example 13, 4-chloro-5-fluoro-2-[3-(1,3-thiazol-4-yl)-2H,4H,5H,6H,7H-pyrazolo[4,3-c]pyridine-5-carbonyl]-1H-indole] | < 1 | > 10
O=C(c1cc2cc(F)c(F)cc2[nH]1)N1CCc2n[nH]c(-c3cscn3)c2C1 [Example 14, 5,6-difluoro-2-[3-(1,3-thiazol-4-yl)-2H,4H,5H,6H,7H-pyrazolo[4,3-c]pyridine-5-carbonyl]-1H-indole] | < 1 | > 10
CCc1c(F)ccc2[nH]c(C(=O)N3CCc4n[nH]c(-c5cscn5)c4C3)cc12 [Example 25, 4-ethyl-5-fluoro-2-[3-(1,3-thiazol-4-yl)-2H,4H,5H,6H,7H-pyrazolo[4,3-c]pyridine-5-carbonyl]-1H-indole] | 1 to 25 | > 10
CC1c2c(-c3cscn3)n[nH]c2CCN1C(=O)c1cc2c(Cl)cc(F)cc2[nH]1 (centres unmarked) [Example 35, 4-chloro-6-fluoro-2-[4-methyl-3-(1,3-thiazol-4-yl)-1H,4H,5H,6H,7H-pyrazolo[4,3-c]pyridine-5-carbonyl]-1H-indole] | < 1 | > 32
O=C(NC1CCCCC1)c1n[nH]c2c1CN(C(=O)c1cc3ccccc3[nH]1)CC2 [Example 87, N-cyclohexyl-5-(1H-indole-2-carbonyl)-1H,4H,5H,6H,7H-pyrazolo[4,3-c]pyridine-3-carboxamide] | 1 to 25 | > 100
C[C@@H]1CCC[C@@H](C)N1C(=O)c1n[nH]c2c1CN(C(=O)c1cc3ccccc3[nH]1)CC2 [Example 146, 2-{3-[(2R,6R)-2,6-dimethylpiperidine-1-carbonyl]-1H,4H,5H,6H,7H-pyrazolo[4,3-c]pyridine-5-carbonyl}-1H-indole] | 1 to 25 | > 10
O=C(c1cc2ccccc2[nH]1)N1CCc2[nH]nc(C(=O)N3CCCC34CCC4)c2C1 [Example 151, 2-(3-{5-azaspiro[3.4]octane-5-carbonyl}-1H,4H,5H,6H,7H-pyrazolo[4,3-c]pyridine-5-carbonyl)-1H-indole] | 1 to 25 | > 10
Cn1ncc2c1CN(C(=O)c1n[nH]c3c1CN(C(=O)c1cc4ccccc4[nH]1)CC3)C2 [Example 168, 2-(3-{1-methyl-1H,4H,5H,6H-pyrrolo[3,4-c]pyrazole-5-carbonyl}-1H,4H,5H,6H,7H-pyrazolo[4,3-c]pyridine-5-carbonyl)-1H-indole] | 1 to 25 | > 10
O=C(c1cc2ccccc2[nH]1)N1CCc2[nH]nc(C(=O)N3CCC4(CCO4)C3)c2C1 (centres unmarked) [Example 182, 2-(3-{1-oxa-6-azaspiro[3.4]octane-6-carbonyl}-1H,4H,5H,6H,7H-pyrazolo[4,3-c]pyridine-5-carbonyl)-1H-indole] | 1 to 25 | > 10
O=C(c1cc2ccccc2[nH]1)N1CCc2[nH]nc(C(=O)N3CCC4(COC4)C3)c2C1 [Example 183, 2-(3-{2-oxa-6-azaspiro[3.4]octane-6-carbonyl}-1H,4H,5H,6H,7H-pyrazolo[4,3-c]pyridine-5-carbonyl)-1H-indole] | 1 to 25 | > 10
O=C(c1cc2ccccc2[nH]1)N1CCc2[nH]nc(C(=O)N3CCC(F)(F)C3)c2C1 [Example 186, 2-[3-(3,3-difluoropyrrolidine-1-carbonyl)-1H,4H,5H,6H,7H-pyrazolo[4,3-c]pyridine-5-carbonyl]-1H-indole] | < 1 | > 10
O=C(c1cc2ccccc2[nH]1)N1CCc2[nH]nc(C(=O)N3CCCC(F)(F)C3)c2C1 [Example 187, 2-[3-(3,3-difluoropiperidine-1-carbonyl)-1H,4H,5H,6H,7H-pyrazolo[4,3-c]pyridine-5-carbonyl]-1H-indole] | < 1 | > 10
CN(C(=O)c1n[nH]c2c1CN(C(=O)c1cc3ccccc3[nH]1)CC2)[C@@H]1CCCC[C@@H]1O [Example 200, N-[(1R,2S)-2-hydroxycyclohexyl]-5-(1H-indole-2-carbonyl)-N-methyl-1H,4H,5H,6H,7H-pyrazolo[4,3-c]pyridine-3-carboxamide] | 1 to 25 | > 10
O=C(c1cc2ccccc2[nH]1)N1CCc2[nH]nc(S(=O)(=O)N3CC(F)(F)C3)c2C1 [Example 209, 2-{3-[(3,3-difluoroazetidin-1-yl)sulfonyl]-1H,4H,5H,6H,7H-pyrazolo[4,3-c]pyridine-5-carbonyl}-1H-indole] | < 1 | > 10
O=C(c1cc2ccccc2[nH]1)N1CCc2[nH]nc(S(=O)(=O)N3CCCC3)c2C1 [Example 210, 2-[3-(pyrrolidine-1-sulfonyl)-1H,4H,5H,6H,7H-pyrazolo[4,3-c]pyridine-5-carbonyl]-1H-indole] | < 1 | > 10
COCCN(C)S(=O)(=O)c1n[nH]c2c1CN(C(=O)c1cc3ccccc3[nH]1)CC2 [Example 212, 5-(1H-indole-2-carbonyl)-N-(2-methoxyethyl)-N-methyl-1H,4H,5H,6H,7H-pyrazolo[4,3-c]pyridine-3-sulfonamide] | 1 to 25 | > 10
CCc1cc(F)cc2[nH]c(C(=O)N3CCc4[nH]nc(C(=O)N5CCCC56CC6)c4C3)cc12 [Example 214, 2-(3-{4-azaspiro[2.4]heptane-4-carbonyl}-1H,4H,5H,6H,7H-pyrazolo[4,3-c]pyridine-5-carbonyl)-4-ethyl-6-fluoro-1H-indole] | < 1 | > 10
O=C(c1cc2c(Cl)cc(F)cc2[nH]1)N1CCc2[nH]nc(C(=O)N3CCCC34CC4)c2C1 [Example 215, 2-(3-{4-azaspiro[2.4]heptane-4-carbonyl}-1H,4H,5H,6H,7H-pyrazolo[4,3-c]pyridine-5-carbonyl)-4-chloro-6-fluoro-1H-indole] | < 1 | > 10
O=C(c1cc2c(Cl)cccc2[nH]1)N1CCc2[nH]nc(C(=O)N3CCCC34CC4)c2C1 [Example 216, 2-(3-{4-azaspiro[2.4]heptane-4-carbonyl}-1H,4H,5H,6H,7H-pyrazolo[4,3-c]pyridine-5-carbonyl)-4-chloro-1H-indole] | < 1 | > 10
O=C(c1cc2c(Cl)c(F)ccc2[nH]1)N1CCc2[nH]nc(C(=O)N3CCC(F)(F)C3)c2C1 [Example 217, 4-chloro-2-[3-(3,3-difluoropyrrolidine-1-carbonyl)-1H,4H,5H,6H,7H-pyrazolo[4,3-c]pyridine-5-carbonyl]-5-fluoro-1H-indole] | < 1 | > 10
CN(C(=O)c1n[nH]c2c1CN(C(=O)c1cc3ccccc3[nH]1)CC2)C1(COC(=O)c2ccccc2)CC1 [Example 219, {1-[N-methyl 5-(1H-indole-2-carbonyl)-1H,4H,5H,6H,7H-pyrazolo[4,3-c]pyridine-3-amido]cyclopropyl}methyl benzoate] | < 1 | > 10
